Results on one compound are retold here after US5043332A, “Novel 11β-substituted -19-nor-steriods” (priority 1981, dated 1991).

For one experiment, the system named is granuloma. Put plainly: Anti-inflammatory activity, classical granuloma test (cotton pellets). The format is in vivo, Wistar rats. The following applies: subcutaneous dose of 50 mg/kg. The procedure:
II. Anti-inflammatory Activity
(§1) The anti-inflammatory activity of the compound of Example 4 was determined by the classical granuloma test by a modification of the Meier et al test [Experientia, Vol. 6 (1950), p. 469] in which normal female Wistar rats weighing 100 to 110 g received an implantation of 2 pellets of cotton weighing 10 mg each under the thorax skin. The subcutaneous treatment which began immediately after the implantation for 2 days was 2 injections per day. 16 hours after the last injection, the animals were killed and the pellets together with the granuloma tissue formed were weighed in the fresh state and after 16 hours at 60° C. The weight of the granuloma was obtained by subtracting the initial weight of the cotton. The thymus was also removed and weighed to determine the thymolytic activity of the test product.

The next experiment has as its system thymus. Description: Thymolytic activity in the granuloma test. Conditions: subcutaneous dose of 50 mg/kg. The format is in vivo, Wistar rats. How it is done: as §1
In experiment [1] the test system is uterine endometrium. Description: Progestomimetic activity, intrauterine, change in uterine endometrium (McPhail). Conditions: method of McPhail. The format is in vivo, immature female rabbits. How it is done:
(§2) Groups of three immature female rabbits weighing about 1 kg were topically treated on the dorsal skin with 25 μg of estradiol in 10 μl of ethanol on day 1. On day 4 the product to be tested dissolved in 0.1 ml, of sesame oil containing 5% benzyl alcohol was introduced into a part of the uterus isolated between two ligatures. On the sixth day the animals were sacrificed, their uteruses retained and fixed in Bouin's solution for histological examination. Changes in the uterine endometrium were noted after the method of McPhail.

In experiment [2] the test system is uterine endometrium. Description: Anti-progestomimetic activity versus progesterone, intrauterine, change in uterine endometrium (McPhail). The format is in vivo, immature female rabbits. How it is done:
as §2

The next experiment has as its system female rats. Description: Anti-implantation and abortive activities in female rats. The format is in vivo, rat. The following applies: by mouth. How it is done:
V. ANTI-IMPLANTATION AND ABORTIVE ACTIVITIES IN FEMALE RATS
The first day of gestation is determined by the presence of sperm in the vagina.
The animals were sacrificed between the 5th and 8th day after the last treatment and the uterus was examined.

Take `CC#C[C@]1(O)CC[C@H]2[C@@H]3CCC4=CC(=O)CCC4=C3[C@@H](c3ccc(N(C)C)cc3)C[C@@]21C` [Example 19, 11β-[4-(N,N-dimethylamino)-phenyl]-17α-(prop-1-ynyl)-Δ^4,9-estradiene-17β-ol-3-one]: the glucocorticoidal anti-inflammatory activity result in the experiment with granuloma was “did not show any glucocorticoidal anti-inflammatory activity”. Besides, in the experiment on thymus, the thymolytic activity result was “did not show any glucocorticoidal anti-inflammatory activity or thymolytic activity”. Moreover, the “CHANGE IN THE ENDOMETRIUM” value in the experiment on uterine endometrium [1] (30 μg/rabbit) stood at 0; with uterine endometrium [1] (500 μg/rabbit) it was 0; in the experiment with uterine endometrium [2] (progesterone 10 μg + 1 μg/rabbit), 1.6; in the experiment with uterine endometrium [2] (progesterone 10 μg + 3 μg/rabbit) it was 1.3; in the experiment with uterine endometrium [2] (progesterone 10 μg + 10 μg/rabbit), 1.0; with uterine endometrium [2] (progesterone 10 μg + 30 μg/rabbit), 0.6. For the same compound, in the experiment with uterine endometrium [2] (progesterone 10 μg + 90 μg/rabbit), the “CHANGE IN THE ENDOMETRIUM” value turned out to be 0.6. The “RESULTS (anti-implantation / abortion)” value in the experiment on female rats (days 1, 2, 3, 2 mg/kg/day) is reported as “No action”; in the experiment with female rats (days 1, 2, 3, 10 mg/kg/day), “Non-implantation”; in the experiment on female rats (days 4, 5, 6, 2 mg/kg/day), “Non-implantation”; with female rats (days 4, 5, 6, 10 mg/kg/day), “Non-implantation”; in the experiment with female rats (days 7, 8, 9, 2 mg/kg/day) it was “Abortion”; with female rats (days 7, 8, 9, 10 mg/kg/day), “Abortion”. The “RESULTS (anti-implantation / abortion)” value with female rats (days 10, 11, 12, 2 mg/kg/day) is “Abortion”; in the experiment with female rats (days 10, 11, 12, 10 mg/kg/day), “Abortion”; in the experiment with female rats (days 13, 14, 15, 10 mg/kg/day), “Abortion”. For the same compound, the “Abortion, % of the animals” value in the experiment on female rats (days 13, 14, 15, 2 mg/kg/day) is 50%.
